Measured values from the NIST ThermoML archive (doi:10.1021/je400839x).

What was measured:
[1] = for viscosity / speed of sound / mass density: 101 kPa, Liquid; for viscosity: Concentric cylinders viscometry; for speed of sound: Pulse-echo method; for mass density: Vibrating tube method
[2] = xn = mol fraction of the nth substance listed; settings: 101 kPa, Liquid, x2 = 0; for viscosity: Concentric cylinders viscometry; for mass density: Vibrating tube method

CC(CC(C)(C)C)CC(C)(C)C [2,2,4,6,6-pentamethylheptane]
[1]
Settings	mass density [kg/m3]	speed of sound [m/s]	viscosity [mPa·s]
293.15 K	745.5	1204	1.29
303.15 K	738.2	1164.9	1.1
313.15 K	730.9	1126.7	0.941
323.15 K	723.5	1089.3	0.827
333.15 K	716.1	–	0.726
343.15 K	708.6	–	0.643
353.15 K	700.9	–	0.573
363.15 K	693.2	–	0.515
373.15 K	685.5	–	0.467

Settings	surface tension liquid-gas [mN/m]
[1], 294 K, Pendant drop shape	21.8

CCCCCCCCCCCCCCCC [hexadecane]
[1]
Settings	mass density [kg/m3]	viscosity [mPa·s]
293.15 K	773.7	3.44
303.15 K	766.8	2.72
313.15 K	759.9	2.21
323.15 K	752.9	1.82
333.15 K	746	1.53
343.15 K	739	1.31
353.15 K	731.9	1.13
363.15 K	724.8	0.99
373.15 K	717.7	0.876

CCCCCCCCCCCCCCCC [hexadecane] + CC(CC(C)(C)C)CC(C)(C)C
[2]
Settings	mass density [kg/m3]	viscosity [mPa·s]
293.15 K	773.7	3.44
303.15 K	766.8	2.72
313.15 K	759.9	2.21
323.15 K	752.9	1.82
333.15 K	746	1.53
343.15 K	739	1.31
353.15 K	731.9	1.13
363.15 K	724.8	0.99
373.15 K	717.7	0.876
